Values belong to the compound of their own block, whether it stands above or below them.
Legend:
[1] = tested on: Digitaria sanguinalis (DIGSA); experiment: Example A post-emergence herbicidal activity, glasshouse pot test; assay type: in vivo; conditions: 360 h, rate 500 g/ha, evaluated 15 days after spraying, read-out: herbicidal damage DIGSA (100=total damage to plant; 0=no damage to plant)
Experimental: (§1) Seeds of a variety of test species were sown in standard soil in pots. After cultivation for one day (pre-emergence) or after 10 days cultivation (post-emergence) under controlled conditions in a glasshouse, the plants were sprayed with an aqueous spray solution derived from the formulation of the technical active ingredient in 0.6 ml acetone and 45 ml formulation solution containing 10.6% Emulsogen EL (Registry number 61791-12-6), 42.2% N-methylpyrrolidone, 42.2% dipropylene glycol monomethyl ether (Registry number 34590-94-8) and 0.2% X-77 (Registry number 11097-66-8). The test plants were then grown in a greenhouse under optimum conditions until, 15 days later for post-emergence and 20 days for pre-emergence, the test was evaluated (100=total damage to plant; 0=no damage to plant). Alopecurus myosuroides (ALOMY), Avena fatua (AVEFA), Lolium perenne (LOLPE), Setaria faberi (SETFA), Digitaria sanguinalis (DIGSA), Echinochloa crus-galli (ECHCG) Post Emergency Activity

Setaria faberi (SETFA) [2] = experiment: as above; assay type: in vivo; conditions: 360 h, rate 500 g/ha, evaluated 15 days after spraying, read-out: herbicidal damage SETFA (100=total damage to plant; 0=no damage to plant)
Experimental: as §1

Lolium perenne (LOLPE) [3] = experiment: as above; assay type: in vivo; conditions: 360 h, rate 500 g/ha, evaluated 15 days after spraying, read-out: herbicidal damage LOLPE (100=total damage to plant; 0=no damage to plant)
Experimental: as §1

[4] = tested on: Echinochloa crus-galli (ECHCG); experiment: as above; assay type: in vivo; conditions: 360 h, rate 500 g/ha, evaluated 15 days after spraying, read-out: herbicidal damage ECHCG (100=total damage to plant; 0=no damage to plant)
Experimental: as §1

Avena fatua (AVEFA) [5] = experiment: as above; assay type: in vivo; conditions: 360 h, rate 500 g/ha, evaluated 15 days after spraying, read-out: herbicidal damage AVEFA (100=total damage to plant; 0=no damage to plant)
Experimental: as §1

[6] = tested on: Alopecurus myosuroides (ALOMY); experiment: as above; assay type: in vivo; conditions: 360 h, rate 500 g/ha, evaluated 15 days after spraying, read-out: herbicidal damage ALOMY (100=total damage to plant; 0=no damage to plant)
Experimental: as §1

[7] = tested on: Digitaria sanguinalis (DIGSA); experiment: Example A pre-emergence herbicidal activity, glasshouse pot test; assay type: in vivo; conditions: 480 h, rate 500 g/ha, evaluated 20 days later, 100=total damage to plant, 0=no damage to plant
Experimental: as §1, with “Pre-Emergence” for “Post Emergency”

Setaria faberi (SETFA) [8] = experiment: as above; assay type: in vivo; conditions: 480 h, rate 500 g/ha, evaluated 20 days later, 100=total damage to plant, 0=no damage to plant
Experimental: as §1, with “Pre-Emergence” for “Post Emergency”

Lolium perenne (LOLPE) [9] = experiment: as above; assay type: in vivo; conditions: 480 h, rate 500 g/ha, evaluated 20 days later, 100=total damage to plant, 0=no damage to plant
Experimental: as §1, with “Pre-Emergence” for “Post Emergency”

[10] = tested on: Echinochloa crus-galli (ECHCG); experiment: as above; assay type: in vivo; conditions: 480 h, rate 500 g/ha, evaluated 20 days later, 100=total damage to plant, 0=no damage to plant
Experimental: as §1, with “Pre-Emergence” for “Post Emergency”

Avena fatua (AVEFA) [11] = experiment: as above; assay type: in vivo; conditions: 480 h, rate 500 g/ha, evaluated 20 days later, 100=total damage to plant, 0=no damage to plant
Experimental: as §1, with “Pre-Emergence” for “Post Emergency”

[12] = tested on: Alopecurus myosuroides (ALOMY); experiment: as above; assay type: in vivo; conditions: 480 h, rate 500 g/ha, evaluated 20 days later, 100=total damage to plant, 0=no damage to plant
Experimental: as §1, with “Pre-Emergence” for “Post Emergency”

- melting point: 62 to 64 °C
Compound: Cc1cc(C)c(C2=C(O)CC(CC3CCOC3)CC2=O)c(C)c1 (centres unmarked) [Compound A-1, 2-(2,4,6-trimethylphenyl)-5-(tetrahydrofuran-3-ylmethyl)cyclohexane-1,3-dione]
- pest or weed control at 500 g/ha [1]: 100%
- pest or weed control at 500 g/ha (Setaria faberi (SETFA) [2]): 100%
- pest or weed control at 500 g/ha (Lolium perenne (LOLPE) [3]): 70%
- pest or weed control at 500 g/ha [4]: 90%
- pest or weed control at 500 g/ha (Avena fatua (AVEFA) [5]): 80%
- pest or weed control at 500 g/ha [6]: 70%
- pest or weed control at 500 g/ha [7]: 100%
- pest or weed control at 500 g/ha (Setaria faberi (SETFA) [8]): 90%
- pest or weed control at 500 g/ha (Lolium perenne (LOLPE) [9]): 80%
- pest or weed control at 500 g/ha [10]: 50%
- pest or weed control at 500 g/ha (Avena fatua (AVEFA) [11]): 40%
- pest or weed control at 500 g/ha [12]: 70%

- melting point: 108 to 110 °C
Compound: Cc1cc(C)c(C2=C(OC(=O)C(C)(C)C)CC(CC3CCOC3)CC2=O)c(C)c1 (centres unmarked) [Compound B-1, 2,2-dimethylpropionic acid 3-oxo-5-(tetrahydrofuran-3-ylmethyl)-2-(2,4,6-trimethylphenyl)cyclohex-1-enyl Ester]
- pest or weed control at 500 g/ha [1]: 90%
- pest or weed control at 500 g/ha (Setaria faberi (SETFA) [2]): 80%
- pest or weed control at 500 g/ha (Lolium perenne (LOLPE) [3]): 60%
- pest or weed control at 500 g/ha [4]: 70%
- pest or weed control at 500 g/ha (Avena fatua (AVEFA) [5]): 0%
- pest or weed control at 500 g/ha [6]: 50%
- pest or weed control at 500 g/ha [7]: 100%
- pest or weed control at 500 g/ha (Setaria faberi (SETFA) [8]): 80%
- pest or weed control at 500 g/ha (Lolium perenne (LOLPE) [9]): 90%
- pest or weed control at 500 g/ha [10]: 100%
- pest or weed control at 500 g/ha (Avena fatua (AVEFA) [11]): 50%
- pest or weed control at 500 g/ha [12]: 90%

Reference: patent US8735322B2, “Herbicides” (Syngenta Limited, priority 2008, dated 2014)
